Consider three compounds from EP0667868B1, “CEPHEM COMPOUNDS” (FUJISAWA PHARMACEUTICAL CO., LTD., priority 1993, dated 1995).

Each structure is given as a SMILES string. ≈ marks a conversion by molar mass, not a printed value.

One series concerns E. coli. The series can be described thus: Minimal inhibitory concentration, two-fold agar-plate dilution method. The class given is cell-based. The note with it: Escherichia coli, HI-agar, 37°C for 20 hours. As for the experimental part:
(§1) In vitro antibacterial activity was determined by the two-fold agar-plate dilution method as described below.
(§2) One loopful of an overnight culture of each test strain in Trypticase-soy broth (10^8 viable cells per ml) was streaked on heart infusion agar (HI-agar)containing graded concentrations of representative test compound, and the minimal inhibitory concentration (MIC) was expressed in terms of µg/ml after incubation at 37°C for 20 hours.

The next series has as its system H. influenzae. Described as above. It counts as cell-based. To be noted: Haemophilus influenzae, HI-agar, 37°C for 20 hours. As for the experimental part: as §1, §2
Another series has as its system S. aureus. The series is described as above. The class given is cell-based. The note with it: Staphylococcus aureus, HI-agar, 37°C for 20 hours. As for the experimental part:
as §1, §2

The nature of series [1]: Urinary excretion after oral administration (disc-plate diffusion bioassay). It counts as in vivo, Male JCL SD strain rats. The note with it: rat; rats, 20 mg /kg oral, suspended in 0.5% methyl cellulose; urine 0 to 6 and 6 to 24 hours; Bacillus subtilis ATCC 6633 as test organism; read-out: Urinary recovery in 24 hours. As for the experimental part:
Male JCL SD strain rats (age, 6-7 weeks) were used. Test compound was suspended in 0.5% methyl cellulose solution. The rats were starved overnight before dosing with 20 mg /kg. Urine samples were collected at 0 to 6 and 6 to 24 hours after oral administration were measured by the disc-plate diffusion method using Bacillus subtilis ATCC 6633 as test organism and sodium citrate agar (0.8% sodium citrate, 0.5% polypeptone, 0.3% beef extract and 1.0% agar) as the test medium. The plate were incubated at 37°C for 18 hours and the zone of inhibition were measured.

Regarding `Nc1nc(/C(=N/O)C(=O)N[C@@H]2C(=O)N3C(C(=O)O)=C(SCc4cn[nH]c4)CS[C@H]23)cs1` [(3), 7β-[2-(2-Aminothiazol-4-yl)-2-(Z)-(hydroxyimino)-acetamido]-3-[(pyrazol-4-yl)methylthio]-3-cephem-4-carboxylic acid], the MIC with E. coli was found to be 0.033 µg/mL (≈ 0.0685 µM); against H. influenzae it was 0.129 µg/mL (≈ 0.268 µM); in the series with S. aureus, 0.23 µg/mL (≈ 0.478 µM). Also, the dose excreted at 24 h in series [1] was determined as 50%.
Regarding `Nc1nc(/C(=N/O)C(=O)N[C@@H]2C(=O)N3C(C(=O)O)=C(SCc4ccncc4)CS[C@H]23)cs1` [Comparative (1), 7β-[2-(2-Aminothiazol-4-yl)-2-(Z)-(hydroxyimino)-acetamido]-3-[(4-pyridyl)methylthio]-3-cephem-4-carboxylic acid], the MIC was 0.061 µg/mL (≈ 0.124 µM) with E. coli, 0.067 µg/mL (≈ 0.136 µM) against H. influenzae and 0.143 µg/mL (≈ 0.29 µM) against S. aureus.
Taken in the same sequence, the figures for `Cc1nnsc1CSC1=C(C(=O)O)N2C(=O)[C@@H](NC(=O)/C(=N\O)c3csc(N)n3)[C@H]2SC1` [Comparative (2), 7β-[2-(2-Aminothiazol-4-yl)-2-(Z)-(hydroxyimino)-acetamido]-3-[(4-methyl-1,2,3-thiadiazol-5-yl)methylthio]-3-cephem-4-carboxylic acid] were 0.072 µg/mL (≈ 0.14 µM), 0.118 µg/mL (≈ 0.23 µM) and 0.167 µg/mL (≈ 0.325 µM).
